According to patent US20100249205A1 (ARIZONA BOARD OF REGENTS, priority 2005, published 2010):
Like-named read-outs stand apart in the source and are kept apart here.

What was measured:
[1] = target: T1, recombinant bovine p110α/p85α (Bos taurus, UniProt P32871); experiment: Recombinant PI-3 kinase inhibition, [32P]γ-ATP dependent phosphorylation of phosphatidylinositol; assay type: biochemical
T1 construct: purchased Jena Bioscience, Jena, Germany

[2] = test system: phospho-Ser^473-Akt in HT-29 colon cancer cells; experiment: Inhibition of EGF-dependent activation of Akt (phospho-Ser473-Akt western blot); assay type: cell-based, human; conditions: HT-29 cells, 4 hours exposure, EGF 50 ng/ml for 20 minutes
Method: The cells were then stimulated with epidermal growth factor (EGF) at 50 ng/ml for 20 minutes. Cells were lysed and the proteins were separated on an SDS-PAGE and transferred to nitrocellulose.

[3] = target: T2, recombinant human p110δ/p85α (Homo sapiens, UniProt O00329); experiment: Recombinant PI-3 kinase inhibition, [32P]γ-ATP dependent phosphorylation of phosphatidylinositol; assay type: biochemical
T2 construct: purchased Upstate, Charlottesville, Va
T2 sequence (O00329 whole entry): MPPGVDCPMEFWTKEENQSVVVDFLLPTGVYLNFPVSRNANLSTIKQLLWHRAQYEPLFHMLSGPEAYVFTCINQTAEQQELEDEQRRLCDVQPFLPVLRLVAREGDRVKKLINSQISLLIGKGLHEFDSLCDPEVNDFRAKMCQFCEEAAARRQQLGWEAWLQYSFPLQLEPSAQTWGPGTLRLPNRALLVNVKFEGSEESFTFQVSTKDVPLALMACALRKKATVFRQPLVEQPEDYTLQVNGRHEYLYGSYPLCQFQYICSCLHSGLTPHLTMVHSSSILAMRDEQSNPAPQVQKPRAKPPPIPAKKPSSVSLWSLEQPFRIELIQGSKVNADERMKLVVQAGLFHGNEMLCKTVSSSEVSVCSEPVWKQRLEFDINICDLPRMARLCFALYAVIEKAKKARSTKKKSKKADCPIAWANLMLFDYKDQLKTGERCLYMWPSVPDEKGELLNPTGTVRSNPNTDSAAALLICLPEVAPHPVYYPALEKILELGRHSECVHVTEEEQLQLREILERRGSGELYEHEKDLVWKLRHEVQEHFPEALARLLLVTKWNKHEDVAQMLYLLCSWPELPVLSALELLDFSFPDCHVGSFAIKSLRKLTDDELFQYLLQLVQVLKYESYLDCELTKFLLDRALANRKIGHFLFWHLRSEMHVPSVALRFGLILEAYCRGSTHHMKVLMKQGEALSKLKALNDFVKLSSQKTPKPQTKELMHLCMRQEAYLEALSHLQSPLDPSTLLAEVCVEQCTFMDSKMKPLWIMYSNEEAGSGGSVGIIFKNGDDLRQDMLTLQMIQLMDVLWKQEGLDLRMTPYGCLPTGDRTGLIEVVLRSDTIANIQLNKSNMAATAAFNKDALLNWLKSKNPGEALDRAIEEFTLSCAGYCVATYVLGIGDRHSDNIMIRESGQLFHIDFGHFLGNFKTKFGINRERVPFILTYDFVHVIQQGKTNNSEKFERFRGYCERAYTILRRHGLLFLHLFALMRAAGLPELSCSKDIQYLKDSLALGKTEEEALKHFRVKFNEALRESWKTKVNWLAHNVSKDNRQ
T2 sequence (P27986 whole entry partner): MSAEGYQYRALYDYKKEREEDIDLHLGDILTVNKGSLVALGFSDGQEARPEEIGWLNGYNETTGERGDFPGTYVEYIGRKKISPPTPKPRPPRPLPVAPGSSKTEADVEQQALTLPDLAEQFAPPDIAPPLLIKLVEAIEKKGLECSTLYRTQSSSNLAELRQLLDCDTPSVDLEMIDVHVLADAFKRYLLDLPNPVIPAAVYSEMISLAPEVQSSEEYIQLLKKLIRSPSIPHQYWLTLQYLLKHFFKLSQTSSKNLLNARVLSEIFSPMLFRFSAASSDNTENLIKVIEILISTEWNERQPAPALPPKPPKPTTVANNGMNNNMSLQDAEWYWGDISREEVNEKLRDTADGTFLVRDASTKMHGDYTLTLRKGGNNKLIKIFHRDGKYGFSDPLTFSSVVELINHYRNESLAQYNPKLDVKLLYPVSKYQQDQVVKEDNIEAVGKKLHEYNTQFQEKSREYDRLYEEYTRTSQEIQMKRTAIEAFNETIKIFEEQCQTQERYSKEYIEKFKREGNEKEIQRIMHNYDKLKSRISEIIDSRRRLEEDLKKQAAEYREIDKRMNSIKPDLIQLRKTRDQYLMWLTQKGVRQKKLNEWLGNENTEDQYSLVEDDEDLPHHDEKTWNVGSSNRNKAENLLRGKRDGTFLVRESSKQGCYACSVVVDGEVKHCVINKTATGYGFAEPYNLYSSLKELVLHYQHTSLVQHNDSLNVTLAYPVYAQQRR

[4] = test system: HT-29 human colon cancer cells; experiment: Cytotoxicity / cell growth inhibition in HT-29 cells, cell number by flow cytometry; assay type: cell-based; conditions: read-out: growth inhibitory concentration 50% (IC50)
Method: The compounds were added from a 10 mg/ml stock solution in ethanol. Cell number was determined after 3 days by flow cytometry using a Guava EasyCyte Plus flow cytometer (Guava Technologies). The results are expressed as cell number at the end of the assay as percent of the control value with no drug. Values are the mean of 3 determinations and bars are standard deviation.

NCI cell panel = experiment: Cytotoxicity, NCI cell panel (growth inhibition, MTT assay); conditions: Homo sapiens, read-out: Cytotoxicity: NCI cell panel IC50
Description: The proliferation of cells may be dependent on the PI-3 kinase-Akt-mTOR signaling pathway. In addition, signaling through PI-3 kinase and Akt appears to inhibit apoptosis. […] The MTT assay is a standard colorimetric assay for measuring cellular proliferation (cell growth). It is universally used to determine cytotoxicity of potential medicinal agents and other toxic materials. Yellow MTT (3-(4,5-Dimethylthiazol-2-yl)-2,5-diphenyltetrazolium bromide) is reduced to purple formazan in the mitochondria of living cells. This reduction takes place only when mitochondrial reductase enzymes are active, and therefore conversion is directly related to the number of viable (living) cells. […] Toxicities are measured at the maximum tolerated dose or the highest dose tested. […] Alanine aminotranferease (ALT) and aspartate aminotransferase (AST) are enzymes located in liver cells that leak out into the general circulation when liver cells are injured. […] A low liver toxicity and a high lymphocyte toxicity as a surrogate for inhibition of tumor cell growth is the desirable feature.

[5] = In vitro metabolism in murine S9 fractions; assay type: in vitro ADME; conditions: phase I, phase II and phase I/II reactions, 60 min
Method: Metabolites generated in these reactions were identified by HPLC runs, using a wavelength of 310 nm (see FIG. 6C). Peaks representing metabolites were identified by comparing the HPLC profiles (at 310 nm) in chromatograms from 0 min and 60 min reaction times. The corresponding mass spectral (MS) analysis of these peaks, using quadrupolar time-of-flight MS allowed the accurate mass of the metabolites to be determined (see FIG. 6D). Metabolynx software (Waters-MicroMass, Milford, Mass.) was used to interpret the spectra.
We identified the M#1 as a reduction product which is most probably a non-microsomal carbonyl reduction of a ketone to a secondary alcohol, as described in previous metabolism studies. In addition, M#2-3 were the same reduction products however, the alteration in retention time may indicate that the molecule undergoes reduction in sites other than that observed with M#1.

mTOR = mTOR (Homo sapiens, UniProt P42345); experiment: mTOR inhibition (Table 1); assay type: biochemical
[6] = from U.S. application Ser. No. 11/178,553; cited from earlier work
PI-3 kinase = assay type: biochemical; conditions: read-out: PI-3 kinase inhibition IC50
[7] = Stability of PX-866 in buffer systems by HPLC; assay type: physicochemical; conditions: for % remaining / % degradation: 1 mg/mL; for % remaining: within 2 hours, 4° C.; for % degradation: after 2 hours of storage
Method: This solution was used as a stock to make the various test buffer solutions to be analyzed. The stock, in each case, was diluted 1:10 to a final storage concentration of 1 mg/mL with 5% dextrose for injection (D5W), sterile water for injection (SW), 0.9% sodium chloride for injection (NS), absolute ethanol (EtOH), and 20 mM sodium phosphate (NaH2PO4) buffer. Prior to analysis the test buffers were further diluted 1:100, to a final analytical concentration of 10 μg/mL, with 50:50 0.2% formic acid:methanol, v:v. 50 μL of each sample was then injected into the HPLC system (Alliance 2695 Separation Module, Waters, Milford, Mass.; see Table 2 for HPLC parameters) for analysis. The 2 hour and 24 hour test samples were stored, undiluted, at 4° C. prior to analysis while the 0 hour samples were immediately quantified following dilution.

[8] = HT-29 cells, 3 days, cell number as percent of control

T1 sequence (P32871 whole entry): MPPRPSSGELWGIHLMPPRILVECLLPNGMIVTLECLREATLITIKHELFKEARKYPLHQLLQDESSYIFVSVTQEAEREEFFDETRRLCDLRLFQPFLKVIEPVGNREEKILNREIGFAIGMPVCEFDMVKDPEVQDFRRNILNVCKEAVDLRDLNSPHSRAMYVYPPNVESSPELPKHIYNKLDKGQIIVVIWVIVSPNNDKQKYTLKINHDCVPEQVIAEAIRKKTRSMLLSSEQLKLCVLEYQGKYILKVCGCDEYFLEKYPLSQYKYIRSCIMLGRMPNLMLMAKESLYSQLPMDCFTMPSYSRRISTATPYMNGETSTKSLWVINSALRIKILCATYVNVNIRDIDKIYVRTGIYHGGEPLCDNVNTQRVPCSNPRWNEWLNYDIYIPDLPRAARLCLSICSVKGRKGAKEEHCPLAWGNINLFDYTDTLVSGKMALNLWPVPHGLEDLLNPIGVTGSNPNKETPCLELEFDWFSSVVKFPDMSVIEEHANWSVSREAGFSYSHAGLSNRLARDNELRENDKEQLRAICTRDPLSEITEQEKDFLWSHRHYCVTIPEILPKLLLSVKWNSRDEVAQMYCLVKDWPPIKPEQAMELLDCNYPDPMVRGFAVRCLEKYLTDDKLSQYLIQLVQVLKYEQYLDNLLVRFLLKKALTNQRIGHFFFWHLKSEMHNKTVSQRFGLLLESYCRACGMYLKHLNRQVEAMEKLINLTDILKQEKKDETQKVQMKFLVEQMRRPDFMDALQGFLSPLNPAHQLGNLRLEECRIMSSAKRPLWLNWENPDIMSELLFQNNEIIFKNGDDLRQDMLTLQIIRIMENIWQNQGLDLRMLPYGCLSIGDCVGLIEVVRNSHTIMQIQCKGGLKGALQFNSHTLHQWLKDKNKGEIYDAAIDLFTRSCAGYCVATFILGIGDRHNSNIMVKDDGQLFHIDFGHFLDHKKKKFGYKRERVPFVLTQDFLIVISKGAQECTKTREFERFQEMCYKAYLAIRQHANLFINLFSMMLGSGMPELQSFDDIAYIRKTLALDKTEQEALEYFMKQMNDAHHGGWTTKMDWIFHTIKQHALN
T1 sequence (P23727 whole entry partner): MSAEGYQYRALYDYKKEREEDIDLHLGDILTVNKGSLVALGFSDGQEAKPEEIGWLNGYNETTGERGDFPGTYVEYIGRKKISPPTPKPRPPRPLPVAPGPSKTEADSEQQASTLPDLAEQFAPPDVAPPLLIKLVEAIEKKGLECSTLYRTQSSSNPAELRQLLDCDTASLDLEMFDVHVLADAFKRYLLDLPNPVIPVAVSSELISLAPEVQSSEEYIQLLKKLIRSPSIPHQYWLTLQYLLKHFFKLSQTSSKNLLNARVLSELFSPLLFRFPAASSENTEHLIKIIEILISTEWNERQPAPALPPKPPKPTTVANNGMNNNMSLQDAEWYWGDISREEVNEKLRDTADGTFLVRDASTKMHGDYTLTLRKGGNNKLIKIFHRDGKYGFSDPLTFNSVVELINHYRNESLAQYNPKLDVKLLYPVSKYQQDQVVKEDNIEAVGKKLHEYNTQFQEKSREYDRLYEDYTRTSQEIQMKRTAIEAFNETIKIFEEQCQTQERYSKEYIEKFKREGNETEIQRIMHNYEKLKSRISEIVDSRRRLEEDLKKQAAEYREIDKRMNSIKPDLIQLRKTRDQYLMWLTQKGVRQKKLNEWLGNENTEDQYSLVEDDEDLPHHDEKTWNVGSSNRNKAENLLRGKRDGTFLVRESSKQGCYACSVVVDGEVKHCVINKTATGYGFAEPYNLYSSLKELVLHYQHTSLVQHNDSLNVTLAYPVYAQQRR

Molecule | inhibition of p110α isoform of PI-3 kinase [1] | IC50 for inhibition of phospho-Ser473-Akt (ratio to total Akt) [2] | inhibition of p110δ isoform of PI-3 kinase [3] | IC50 [4, 8] | IC50 (NCI cell panel) | IC50 (PI-3 kinase) | other results
11-deacetylated,17-hydroxy PX-866 [PX-866-1] | considerably less active | greater than 70 nM | considerably less active | 4.5 µM | – | – | –
17-hydroxy PX-866 [PX-866-2] | as active as PX-866 or wortmannin | 0.04 µM | as active as PX-866 or wortmannin | > 50 µM | – | – | –
C=CCN(/C=C1/C(=O)O[C@H](COC)[C@@]2(C)C1=C(O)C(=O)C1=C2[C@H](OC(C)=O)C[C@]2(C)C(=O)CC[C@@H]12)CC=C [PX-866, Acetic acid 4-diallylaminomethylene-6-hydroxy-1-α-methoxymethyl-10β,13β-dimethyl-3,7,17-trioxo-1,3,4,7,10,11β,12,13,14α,15,16,17-dodecahydro-2-oxa-cyclopenta[α]phenanthren-11-yl ester] | – | – | – | – | 2.2 µM | 0.0005 µM | type of metabolites formed [5]: only Phase I-type metabolites were formed; IC50 (mTOR; read-out: mTOR inhibition IC50): > 3 µM; blood levels following oral administration [6]: low; IC50 ([4]; Homo sapiens, HT-29, 72 h): 4 µM; % remaining ([7]; 20 mM sodium phosphate buffer): > 60%; % remaining ([7]; D5W (5% dextrose for injection)): > 80%; % degradation ([7]; EtOH (absolute ethanol)): < 10%; % degradation ([7]; NS (0.9% sodium chloride for injection)): < 10%; % degradation ([7]; SW (sterile water for injection)): < 10%; stability from 2 to 24 hours ([7]; regardless of the buffer system employed): maintained relative stability
COCC1OC(=O)C(=CN2CCCC2)C2=C(O)C(=O)C3=C(C(OC(C)=O)CC4(C)C(=O)CCC34)C21C (stereo not drawn) [PX-867, Acetic acid 6-hydroxy-1α-methoxymethyl-10β,13β-dimethyl-3,7,17-trioxo-4-pyrrolidin-1-yl-methylene-1,3,4,7,10,11β,12,13,14α,15,16,17-dodecahydro-2-oxa-cyclopenta[α]phenanthren-11-yl] | – | – | – | – | 0.5 µM | 0.0011 µM | IC50 (mTOR): > 3 µM
COC[C@H]1OC(=O)c2coc3c2[C@@]1(C)C1=C(C3=O)[C@@H]2CCC(=O)[C@@]2(C)C[C@H]1OC(C)=O [Wortmannin, wortmannin, reference compound] | – | – | – | – | 8.9 µM | – | –
